Species: Rattus norvegicus
Assay: DrugMatrix - Regimen: Daily Repeat
Format: toxicity, organism-based, Sprague-Dawley
Design: regimen Daily Repeat, gender Male, age 6-8 weeks
Conditions: in vivo, po, route oral GAVAGE, vehicle 100 % WATER; for ABSOLUTE BASOPHIL / ABSOLUTE EOSINOPHIL / ABSOLUTE LYMPHOCYTE / ABSOLUTE MONOCYTE / ABSOLUTE SEGMENTED NEUTROPHIL / BASOPHIL / EOSINOPHIL / ERYTHROCYTE COUNT / HEMATOCRIT / HEMOGLOBIN / LEUKOCYTE COUNT / LYMPHOCYTE / MEAN CORPUSCULAR HEMOGLOBIN / MEAN CORPUSCULAR HEMOGLOBIN CONCENTRATION / MEAN CORPUSCULAR VOLUME / MONOCYTE / NEUTROPHIL / NUCLEATED RED BLOOD CELLS / PLATELET COUNT: tissue Blood; for ALANINE AMINOTRANSFERASE / ALBUMIN / ALKALINE PHOSPHATASE / ASPARTATE AMINOTRANSFERASE / BLOOD UREA NITROGEN / CARBON DIOXIDE / CHLORIDE / CHOLESTEROL / CREATINE PHOSPHOKINASE / CREATININE / GLUCOSE / LACTATE DEHYDROGENASE / LIPASE / PHOSPHORUS / POTASSIUM / SODIUM / TOTAL BILIRUBIN / TOTAL PROTEIN / URIC ACID: tissue Plasma
[1] = 0 mg/kg, 72 h, dose level Control, time 3 day
[2] = 0 mg/kg, 120 h, dose level Control, time 5 day
[3] = 58 mg/kg, 72 h, dose level Low, time 3 day

Cc1cn([C@H]2C=C[C@@H](CO)O2)c(=O)[nH]c1=O [STAVUDINE]
ABSOLUTE BASOPHIL [1]: 0 CELLS/uL | ABSOLUTE EOSINOPHIL [1]: 0 CELLS/uL | ABSOLUTE LYMPHOCYTE [1]: 8482.5 CELLS/uL | ABSOLUTE MONOCYTE [1]: 63.83 CELLS/uL | ABSOLUTE SEGMENTED NEUTROPHIL [1]: 887 CELLS/uL | BASOPHIL [1]: 0% | EOSINOPHIL [1]: 0% | ERYTHROCYTE COUNT [1]: 5.49 x10E6/uL | HEMATOCRIT [1]: 34.5% | HEMOGLOBIN [1]: 13.33 G/DL | LEUKOCYTE COUNT [1]: 9.43 x10E3/uL | LYMPHOCYTE [1]: 90.17% | MEAN CORPUSCULAR HEMOGLOBIN [1]: 24.3 pg | MEAN CORPUSCULAR HEMOGLOBIN CONCENTRATION [1]: 38.63 G/DL | MEAN CORPUSCULAR VOLUME [1]: 62.88 fL | MONOCYTE [1]: 0.67% | NEUTROPHIL [1]: 9.17% | NUCLEATED RED BLOOD CELLS [1]: 0.67 /100WBC | PLATELET COUNT [1]: 1022.83 x10E3/uL | ALANINE AMINOTRANSFERASE [1]: 50.5 u/L | ALBUMIN [1]: 4.08 G/DL | ALKALINE PHOSPHATASE [1]: 368.33 u/L | ASPARTATE AMINOTRANSFERASE [1]: 87.5 u/L | BLOOD UREA NITROGEN [1]: 12.83 mg/dL | CARBON DIOXIDE [1]: 32.83 mmol/L | CHLORIDE [1]: 99.67 MEQ/L | CHOLESTEROL [1]: 79.67 mg/dL | CREATINE PHOSPHOKINASE [1]: 585 u/L | CREATININE [1]: 0.22 mg/dL | GLUCOSE [1]: 135.67 mg/dL | LACTATE DEHYDROGENASE [1]: 171 u/L | LIPASE [1]: 9.5 u/L | PHOSPHORUS [1]: 11.18 mg/dL | POTASSIUM [1]: 6.25 MEQ/L | SODIUM [1]: 144.87 MEQ/L | TOTAL BILIRUBIN [1]: 0.2 mg/dL | TOTAL PROTEIN [1]: 6.08 G/DL | URIC ACID [1]: 0.65 mg/dL | ABSOLUTE BASOPHIL [2]: 0 CELLS/uL | ABSOLUTE EOSINOPHIL [2]: 14.5 CELLS/uL | ABSOLUTE LYMPHOCYTE [2]: 7596.17 CELLS/uL | ABSOLUTE MONOCYTE [2]: 69.67 CELLS/uL | ABSOLUTE SEGMENTED NEUTROPHIL [2]: 503 CELLS/uL | BASOPHIL [2]: 0% | EOSINOPHIL [2]: 0.17% | ERYTHROCYTE COUNT [2]: 5.49 x10E6/uL | HEMATOCRIT [2]: 34.72% | HEMOGLOBIN [2]: 13.47 G/DL | LEUKOCYTE COUNT [2]: 8.18 x10E3/uL | LYMPHOCYTE [2]: 92.17% | MEAN CORPUSCULAR HEMOGLOBIN [2]: 24.57 pg | MEAN CORPUSCULAR HEMOGLOBIN CONCENTRATION [2]: 38.82 G/DL | MEAN CORPUSCULAR VOLUME [2]: 63.3 fL | MONOCYTE [2]: 1% | NEUTROPHIL [2]: 6.67% | NUCLEATED RED BLOOD CELLS [2]: 0 /100WBC | PLATELET COUNT [2]: 1141 x10E3/uL | ALANINE AMINOTRANSFERASE [2]: 48.33 u/L | ALBUMIN [2]: 4.07 G/DL | ALKALINE PHOSPHATASE [2]: 395.67 u/L | ASPARTATE AMINOTRANSFERASE [2]: 85.67 u/L | BLOOD UREA NITROGEN [2]: 15.83 mg/dL | CARBON DIOXIDE [2]: 31.33 mmol/L | CHLORIDE [2]: 100.83 MEQ/L | CHOLESTEROL [2]: 62.33 mg/dL | CREATINE PHOSPHOKINASE [2]: 248.33 u/L | CREATININE [2]: 0.2 mg/dL | GLUCOSE [2]: 135.67 mg/dL | LACTATE DEHYDROGENASE [2]: 141.33 u/L | LIPASE [2]: 9.5 u/L | PHOSPHORUS [2]: 10.73 mg/dL | POTASSIUM [2]: 6.07 MEQ/L | SODIUM [2]: 145.35 MEQ/L | TOTAL BILIRUBIN [2]: 0.22 mg/dL | TOTAL PROTEIN [2]: 6.12 G/DL | URIC ACID [2]: 0.63 mg/dL | ABSOLUTE BASOPHIL [3]: 0 CELLS/uL | ABSOLUTE EOSINOPHIL [3]: 22.67 CELLS/uL | ABSOLUTE LYMPHOCYTE [3]: 7881 CELLS/uL | ABSOLUTE MONOCYTE [3]: 172.33 CELLS/uL | ABSOLUTE SEGMENTED NEUTROPHIL [3]: 1024 CELLS/uL | BASOPHIL [3]: 0% | EOSINOPHIL [3]: 0.33% | ERYTHROCYTE COUNT [3]: 5.09 x10E6/uL | HEMATOCRIT [3]: 32.43% | HEMOGLOBIN [3]: 12.77 G/DL | LEUKOCYTE COUNT [3]: 9.1 x10E3/uL | LYMPHOCYTE [3]: 86.67% | MEAN CORPUSCULAR HEMOGLOBIN [3]: 25.1 pg | MEAN CORPUSCULAR HEMOGLOBIN CONCENTRATION [3]: 39.37 G/DL | MEAN CORPUSCULAR VOLUME [3]: 63.77 fL | MONOCYTE [3]: 2% | NEUTROPHIL [3]: 11% | NUCLEATED RED BLOOD CELLS [3]: 1 /100WBC | PLATELET COUNT [3]: 1073 x10E3/uL | ALANINE AMINOTRANSFERASE [3]: 58.67 u/L | ALBUMIN [3]: 4.17 G/DL | ALKALINE PHOSPHATASE [3]: 410.33 u/L | ASPARTATE AMINOTRANSFERASE [3]: 82.67 u/L | BLOOD UREA NITROGEN [3]: 12 mg/dL | CARBON DIOXIDE [3]: 33 mmol/L | CHLORIDE [3]: 99 MEQ/L | CHOLESTEROL [3]: 75 mg/dL | CREATINE PHOSPHOKINASE [3]: 267 u/L | CREATININE [3]: 0.33 mg/dL | GLUCOSE [3]: 133.33 mg/dL | LACTATE DEHYDROGENASE [3]: 130.33 u/L | LIPASE [3]: 10 u/L | PHOSPHORUS [3]: 11.33 mg/dL | POTASSIUM [3]: 6.27 MEQ/L | SODIUM [3]: 145.07 MEQ/L | TOTAL BILIRUBIN [3]: 0.23 mg/dL | TOTAL PROTEIN [3]: 6 G/DL | URIC ACID [3]: 0.77 mg/dL

From ChEMBL document CHEMBL3885881, “DrugMatrix”
